# In PMC8998618, “A Pharmacokinetic and Metabolism Study of the TRPC6 Inhibitor SH045 in Mice by LC-MS/MS” (International Journal of Molecular Sciences, 2022):
# Like-named read-outs stand apart in the source and are kept apart here.
# Experiments:
# [1] = test system: TRPC3/6 channels of rat pulmonary arterial smooth muscle cells (PASMC); parameters: method as in PMID 29522264; conditions: cited from earlier work
# [2] = plasma pharmacokinetics after single i.v. and p.o. administration, NCA; assay type: in vivo, mice; conditions: for increase in AUCinf with 10-fold dosing / increase in cmax with 10-fold dosing: 20 vs 2 mg/kg BW; for Cmax / Tmax / AUC(0-inf) / AUC(0-t) / MRT / half-life / bioavailability / CL/F / Vd/F / AUCextra / Vz/F: plasma; for bioavailability: from AUCinf, read-out: oral bioavailability (F); for Vd/F: read-out: Vz/F
# Method: Analysis of SH045 in samples from plasma, tissue, urine, and microsomal incubations was performed as previously described. Details are described in Supplementary Materials SM2.
# Male C57BL/6 mice (25–30 g BW, Charles River, Sulzfeld, Germany) housed in groups under standard conditions and allowed access to lab chow and water ad libitum were used. The in vivo experiments were performed according to the national regulations of animal welfare and were ethically approved by the local committee on animal welfare and the local authorities. Animal experiments were performed under strict consideration of the 3R principles, fully complying with the ARRIVE guidelines. For single SH045 administration mice were assigned to four groups of 12 animals each: 2 and 20 mg/kg BW applied via the i.v. and the p.o. route, respectively. Due to the recommended limited volume for blood collection, each mouse was assigned to a maximum of five different time points each out of 8 (for p.o.) and 9 (for i.v.) for blood collection resulting in six independent plasma concentration values per time point.
# SH045 was freshly prepared with DMSO (final concentration 0.5%) and Kolliphor® EL (5% in water). At 7:00 a.m., one hour before drug administration, food was removed. For oral gavage and for i.v. administration into the tail vein the respective dose was applied in a volume of 3 mL/kg BW.
# Via heparin-coated catheters a maximum of 50 µL blood was collected from the tail vein at 0.25, 0.5, 1, 2, 3, 4, 6, 8, or 24 h after administration and immediately centrifuged at 4000× g at 4 °C for 10 min. For repeated administration 20 mg/kg BW SH045 were administered at 8:00 a.m. on five consecutive days, once a day. Blood was taken 1 h and 24 h after drug administration. Tissue samples were harvested from isoflurane-euthanized animals at indicated time points. Mice were transcardially perfused with PBS and dissected tissues were washed to remove remaining blood. Plasma and tissue samples were stored at −80 °C until analysis. Urine was collected by bladder puncture at indicated time points.
# Pharmacokinetics parameters for SH045 were determined based on non-compartmental model analysis (NCA) using the Phoenix WinNonlin Software 8.3 (Certara, Princeton, NJ, USA). The slope of the terminal phase of the SH045 concentration-time profile (λz) was estimated as absolute values from ≥3 data points using a log-linear regression analysis. The area under the concentration-time curve (AUC) for the time (t) providing the final measurable concentration (AUClast) was calculated using the mixed log-linear trapezoidal rule (linear up, log down). The AUCinf was computed as AUClast + Clast/λz, where the estimated value of the latest data point is used. The systemic total body clearance from plasma (CLp) was calculated as applied dose divided by AUCinf. MRT was calculated as AUMCinf/AUCinf, where area under the first moment curve (AUMC) was defined as area under the curve of the product of time and the plasma drug concentration versus time from zero to infinity. Finally, the AUCextra extrapolates the AUC from the last measured time point to infinity. Vz, the apparent volume of distribution during terminal elimination phase was calculated by Vz = Dose/AUCinf × λz, where λz is the plasma elimination rate constant. The apparent volume of distribution during the terminal phase following extravascular administration based on the fraction of dose absorbed Vz/F = Dose/(AUCinf × λz). The bioavailability (F) of two oral doses SH045 doses were calculated with reference to identical doses administered by intravenous bolus application of SH045 as follows: F = AUCoral/AUCi.v. Tissue binding of SH045 was analyzed exemplarily in lung, liver and kidney homogenate using ultrafiltration. The concentration in the filtrate refers to the unbound SH045 concentration according to tissue binding (%) = (ctot − cfiltrate)/ctotal × 100. For details see Supplementary Materials SM5.
# [3] = male, C57BL/6, mouse, iv, mice, single 2.0 mg/kg BW i.v.
# [4] = male, C57BL/6, mouse, iv, mice, single 2.0 mg/kg BW i.v., NCA
# [5] = male, C57BL/6, mouse, iv, mice, single 20 mg/kg BW i.v.
# [6] = male, C57BL/6, mouse, iv, mice, single 20 mg/kg BW i.v., NCA
# [7] = male, C57BL/6, mouse, po, mice, single 2.0 mg/kg BW p.o.
# [8] = male, C57BL/6, mouse, po, mice, single 2.0 mg/kg BW p.o., NCA
# [9] = male, C57BL/6, mouse, po, mice, single 20 mg/kg BW p.o.
# [10] = male, C57BL/6, mouse, po, mice, single 20 mg/kg BW p.o., NCA
# [11] = mice, single 2.0 mg/kg BW i.v., NCA
# [12] = mice, single 20 mg/kg BW i.v., NCA
smiles,measurement,setting,value
"C=C[C@@](C)(O)CC[C@H]1C(=C)C[C@H](OC(=O)NC)[C@H]2C(C)(C)CCC[C@]12C [SH045, (1S,4S,4aR,8aS)-4-((S)-3-Hydroxy-3-methylpent-4-en-1-yl)-4a,8,8-trimethyl-3-methylenedecahydronaphthalen-1-yl methylcarbamate]",OAG-induced Ca^2+ entry,[1],inhibition
same,total body clearance following oral administration with regard to oral bioavailability,[2]; 2 mg/kg p.o.,95 mL/min/kg
same,time up to which SH045 is measurable in plasma,[2]; 20 mg/kg BW i.v.,up to 24 h
same,corresponding drug plasma concentration,"[2]; 20 mg/kg BW i.v., corresponding to urine period 10–30 min",3035 nM
same,corresponding drug plasma concentration,"[2]; 20 mg/kg BW i.v., corresponding to urine period 60–80 min",1655 nM
same,corresponding drug plasma concentration,"[2]; 20 mg/kg BW i.v., corresponding to urine period 100–120 min",560 nM
same,accumulation of SH045 in plasma after repeated administration,"[2]; 20 mg/kg i.v. five times once a day, 1 and 24 h after the last injection",no accumulation
same,"AUCextra percentage, simulated recalculation including late low concentration values","[2]; 20 mg/kg i.v., NCA",0.8%
same,total body clearance following oral administration with regard to oral bioavailability,[2]; 20 mg/kg p.o.,117 mL/min/kg
same,increase in AUCinf with 10-fold dosing,[2]; i.v.,8.1 fold
same,increase in cmax with 10-fold dosing,[2]; i.v.,6.5 fold
same,Cmax,[2]; [3],369 ng/mL
same,Tmax,[2]; [3],15 min
same,AUC(0-inf),[2]; [4],351 ng·h/mL
same,AUC(0-t),[2]; [4],338 ng·h/mL
same,MRT,[2]; [4],0.75 h
same,half-life,"[2]; male, C57BL/6, mouse, iv, mice, single 2.0 mg/kg BW i.v., NCA, read-out: t1/2 (converted)",76.8 min
same,Cmax,[2]; [5],2390 ng/mL
same,Tmax,[2]; [5],15 min
same,AUC(0-inf),[2]; [6],2840 ng·h/mL
same,AUC(0-t),[2]; [6],2720 ng·h/mL
same,MRT,[2]; [6],1.52 h
same,half-life,"[2]; male, C57BL/6, mouse, iv, mice, single 20 mg/kg BW i.v., NCA, read-out: t1/2 (converted)",142 min
same,half-life,"[2]; male, C57BL/6, mouse, intravenous, oral, range over both doses and routes, read-out: mean half-life (t1/2)",72 to 144 min
same,bioavailability,"[2]; male, C57BL/6, mouse, po, 2 mg/kg p.o.",24%
same,bioavailability,"[2]; male, C57BL/6, mouse, po, 20 mg/kg p.o.",11%
same,Cmax,[2]; [7],68.3 ng/mL
same,Tmax,[2]; [7],30 min
same,AUC(0-inf),[2]; [8],84.2 ng·h/mL
same,AUC(0-t),[2]; [8],69 ng·h/mL
same,MRT,[2]; [8],1.78 h
same,CL/F,"[2]; male, C57BL/6, mouse, po, mice, single 2.0 mg/kg BW p.o., NCA, read-out: CL/F",396 mL/min/kg
same,Vd/F,[2]; [8],39.5 L/kg
same,half-life,"[2]; male, C57BL/6, mouse, po, mice, single 2.0 mg/kg BW p.o., NCA, read-out: t1/2 (converted)",69 min
same,Cmax,[2]; [9],341 ng/mL
same,Tmax,[2]; [9],30 min
same,AUC(0-inf),[2]; [10],314 ng·h/mL
same,AUC(0-t),[2]; [10],298 ng·h/mL
same,MRT,[2]; [10],1.68 h
same,CL/F,"[2]; male, C57BL/6, mouse, po, mice, single 20 mg/kg BW p.o., NCA, read-out: CL/F",1060 mL/min/kg
same,Vd/F,[2]; [10],171 L/kg
same,half-life,"[2]; male, C57BL/6, mouse, po, mice, single 20 mg/kg BW p.o., NCA, read-out: t1/2 (converted)",112 min
same,AUCextra,[2]; [11],3.7%
same,CL/F,[2]; [11],94.9 mL/min/kg
same,Vz/F,[2]; [11],10.5 L/kg
same,AUCextra,"[2]; mice, single 2.0 mg/kg BW p.o., NCA",17.5%
same,AUCextra,[2]; [12],4.2%
same,CL/F,[2]; [12],117.2 mL/min/kg
same,Vz/F,[2]; [12],24.0 L/kg
same,AUCextra,"[2]; mice, single 20 mg/kg BW p.o., NCA",5.0%
same,F,"[2]; mice, single 2.0 mg/kg BW i.v. (reference route)",1.0
same,F,"[2]; mice, single 2.0 mg/kg BW p.o., F = AUCoral/AUCi.v.",0.24
same,F,"[2]; mice, single 20 mg/kg BW i.v. (reference route)",1.0
same,F,"[2]; mice, single 20 mg/kg BW p.o., F = AUCoral/AUCi.v.",0.11
same,increase in AUCinf with 10-fold dosing,[2]; oral,3.7 fold
same,increase in cmax with 10-fold dosing,[2]; oral,5.0 fold
same,time up to which SH045 is measurable in plasma,[2]; orally,up to 6 h
